# Patent publication US20230106760A1, “ANTIBACTERIAL AND ANTIFUNGAL POLYKETIDES FROM ENVIRONMENTAL AMYCOLATOPSIS SPP” (The United States of America, as represented by the …, priority 2020, published 2023)
# Tests used:
# [1] = test system: MRSA, methicillin-resistant Sa ATCC 43300; assay: MIC, CLSI broth dilution susceptibility assay; type: cell-based, Staphylococcus aureus; settings: for Minimum Inhibitory Concentration (MIC): MRSA ATCC 43300
# Protocol: (§1) The compounds were assayed against Gram-positive bacteria Staphylococcus aureus (Sa), methicillin-resistant Sa (MRSA), Enterococcus faecalis, and Vancomycin-resistant E. faecalis; the Gram-negative bacteria Escherichia coli and Pseudomonas aeruginosa; and the fungi Candida albicans and Amphotericin B-resistant C. albicans.
# (§2) The growth conditions were adapted from the CLSI protocols for broth dilution susceptibility assays. A culture of S. aureus ATCC 29213 was diluted with MHII broth to an inoculum of—5×10^5 CFU/mL. Cultures were grown in 100 μL in round-bottom 96-well plates with increasing concentrations of test or control compound. Plates were gently rocked at 37° C. overnight and then 50 μL of each culture was spread onto TSA plates without antibiotic. The plates were incubated at 37° C. overnight and then examined for bacterial growth. Similarly, an inoculum of C. albicans ATCC 28517 or C. auris ATCC MYA-5001 was prepared in RPMI-1640 with 165 mM MOPS at 0.5×10^3-2.5×10^3 CFU/mL. Cultures were grown in 200 μL in round-bottom 96-well plates with increasing concentrations of test or control compound. Plates were gently rocked at 35° C. overnight and then 50 μL of each culture was spread onto Sabouraud dextrose agar (SDA) plates without compound. The plates were incubated at 35° C. overnight and then examined for fungal growth.
# [2] = test system: Candida albicans ATCC 28517; assay: MIC, CLSI broth dilution susceptibility assay; type: cell-based; settings: for Minimum Inhibitory Concentration (MIC): Candida albicans ATCC 28517
# Protocol: as §1, §2
# [3] = test system: Candida auris ATCC MYA-5001; assay: MIC, CLSI broth dilution susceptibility assay; type: cell-based; settings: for Minimum Inhibitory Concentration (MIC): Candida auris ATCC MYA-5001
# Protocol: as §1, §2
# [4] = test system: Enterococcus faecalis ATCC 29212; assay: MIC, CLSI broth dilution susceptibility assay; type: cell-based; settings: for Minimum Inhibitory Concentration (MIC): Enterococcus faecalis ATCC 29212
# Protocol: as §1, §2
# [5] = test system: Escherichia coli ATCC 25922; assay: MIC, CLSI broth dilution susceptibility assay; type: cell-based
# Protocol: as §1, §2
# [6] = test system: Pseudomonas aeruginosa ATCC 27853; assay: MIC, CLSI broth dilution susceptibility assay; type: cell-based
# Protocol: as §1, §2
# [7] = test system: Staphylococcus aureus (Sa) ATCC 29213; assay: MIC, CLSI broth dilution susceptibility assay; type: cell-based; settings: for Minimum Inhibitory Concentration (MIC): Staphylococcus aureus ATCC 29213
# Protocol: as §1, §2
# [8] = test system: Vancomycin-resistant E. faecalis ATCC 51299; assay: MIC, CLSI broth dilution susceptibility assay; type: cell-based, Enterococcus faecalis
# Protocol: as §1, §2
# [9] = test system: Amphotericin B-resistant C. albicans ATCC 200955; type: cell-based
# Protocol: as §1, §2
# S. aureus ATCC 29213 = assay: Bactericidal activity: broth cultures with compound plated onto TSA without antibiotic; type: cell-based, Staphylococcus aureus; settings: for MIC: Staphylococcus aureus, ATCC29213
# Protocol: as §2
# (§3) After treatment with concentrations of compound 2 at or nearing the MIC, no viable organism could be recovered.
# (§4) FIG. 19-20 show bactericidal and fungicidal activities of compound 2. FIG. 19A-C show the bactericidal activity of compound 2 against S. aureus ATCC 29213. […] FIG. 20A-B show the fungicidal activity of compound 2.
# C. albicans ATCC 28517 = assay: Fungicidal activity: broth cultures with compound plated onto SDA without compound; type: cell-based, Candida albicans
# Protocol: as §2, §3, §4
# C. auris ATCC MYA-5001 = assay: as above; type: cell-based, Candida auris
# Protocol: as §2, §3, §4
# [10] = test system: Amycolatopsis glycosyltransferase; assay: Glycosyltransferase assay (substrate specificity); type: biochemical, Amycolatopsis sp. F10; settings: PBS, 500 μM UDP-glucose, 100 μM substrate, 30° C., 2 to 30 min; HPLC UV 254 nm or MS
# Protocol: Glycosyltransferase expression vector cloning: An expression vector pET28b-gt was constructed by cloning the glycosyltransferase gene into pET28b (Novagen) with a C-terminal 6-His tag using the NEBuilder HiFi DNA Assembly kit (New England Biolabs). The glycosyltransferase gene was PCR amplified from F10 genomic DNA with primers that appended 5′ and 3′ overhangs homologous to the pET28b multiple cloning site. The linearized pET28b vector was prepared by restriction enzyme digestion with NcoI and XhoI. After cloning and confirmation by Sanger sequencing, pET28b-gt was transformed into E. coli BL21(DE3) for protein expression. The expression vector pET28b-gt-H15A was created from pET28b-gt with site-directed mutagenesis using overlapping primers and the QuikChange II kit.
# Glycosyltransferase recombinant protein purification: An overnight culture of the glycosyltransferase expression strain in Luria-Bertani broth (LB) was used to inoculate 2 L LB with a 1:100 dilution (v/v). The culture was grown at 37° C. to OD600=0.5-0.7 and 0.1 mM isopropyl β-d-1-thiogalactopyranoside (IPTG) was added to induce protein expression for 4 hours. Cells were harvested by centrifugation, suspended in 20 mL phosphate-buffered saline (PBS) and stored at −80° C. For purification, the cells were thawed, lysed (lysozyme, DNase, MgCl2, phenylmethylsulfonyl fluoride (PMSF), and sonication), and cellular debris was removed by centrifugation. The glycosyltransferase was purified from the clarified lysate in two chromatographic steps on an AKTA Pure 25 FPLC. […] The eluted fractions containing the glycosyltransferase were confirmed by SDS-PAGE, pooled, and concentrated and buffer exchanged to remove imidazole in a 10000 Da MW centrigual filter device. The sample was run on a HiLoad Superdex 75 pg 16/600 size exclusion column with 50 mM HEPES pH 6.8/50 mM NaCl/10% glycerol. Protein purity was confirmed by SDS-PAGE. The purified glycosyltransferase was concentrated and flash frozen in aliquots at […]. […]
# [11] = S. aureus ATCC 29213, FIG. 19 bactericidal experiment
# [12] = at or nearing the MIC no viable organism could be recovered
structure (smiles),measurement,setting,value
CC/C=C/C=C/C=C/C(O)CC1(O)OC(CC(O)C(O)C(O)C(O)C(O)C(C)C(O)C(C)C(O)CC(O)CC(O)CC(O)C(C)C(O)C(C)C(O)C(C)C(O)C(CC(C)CC(C)/C=C(C)/C(O)=C2/C(=O)C(C)N(C)C2=O)OC2OC(CO)C(O)C(O)C2O)C(O)C(O)C1O (stereo not shown) [Compound 1],Minimum Inhibitory Concentration (MIC),[1],>128 micrograms/mL
same,Minimum Inhibitory Concentration (MIC),[2],>128 micrograms/mL
same,Minimum Inhibitory Concentration (MIC),[3],>128 micrograms/mL
same,Minimum Inhibitory Concentration (MIC),[4],>128 micrograms/mL
same,Minimum Inhibitory Concentration (MIC),[5],>128 micrograms/mL
same,Minimum Inhibitory Concentration (MIC),[6],>128 micrograms/mL
same,Minimum Inhibitory Concentration (MIC),[7],>128 micrograms/mL
same,Minimum Inhibitory Concentration (MIC),[8],>128 micrograms/mL
same,Minimum Inhibitory Concentration (MIC),[9],>128 micrograms/mL
CC/C=C/C=C/C=C/C(O)CC1(O)OC(CC(O)C(O)C(O)C(O)C(O)C(C)C(O)C(C)C(O)CC(O)CC(O)CC(O)C(C)C(O)C(C)C(O)C(C)C(O)C(O)CC(C)CC(C)/C=C(C)/C(O)=C2/C(=O)C(C)N(C)C2=O)C(O)C(O)C1O (stereo not shown) [Compound 2],Minimum Inhibitory Concentration (MIC),[1],2 micrograms/mL
same,Minimum Inhibitory Concentration (MIC),[2],8 micrograms/mL
same,Minimum Inhibitory Concentration (MIC),[3],16 micrograms/mL
same,Minimum Inhibitory Concentration (MIC),[4],8 micrograms/mL
same,Minimum Inhibitory Concentration (MIC),[5],>128 micrograms/mL
same,Minimum Inhibitory Concentration (MIC),[6],>128 micrograms/mL
same,Minimum Inhibitory Concentration (MIC),[7],2 micrograms/mL
same,Minimum Inhibitory Concentration (MIC),[8],8 micrograms/mL
same,Minimum Inhibitory Concentration (MIC),[9],8 micrograms/mL
same,MIC in the experiment,S. aureus ATCC 29213; [11],2 µg/mL
same,Mode of action against S. aureus (bactericidal),S. aureus ATCC 29213; [12],bactericidal
same,MIC in the experiment,"C. albicans ATCC 28517; C. albicans ATCC 28517, FIG. 20A fungicidal experiment",8 µg/mL
same,Mode of action against C. albicans (fungicidal),C. albicans ATCC 28517; [12],fungicidal
same,MIC in the experiment,"C. auris ATCC MYA-5001; C. auris ATCC MYA-5001, FIG. 20B fungicidal experiment",16 µg/mL
same,Mode of action against C. auris (fungicidal),C. auris ATCC MYA-5001; [12],fungicidal
same,Glycosyltransferase activity on the substance as substrate,[10],complete conversion
"C[C@@H]1[C@H](O)[C@@H](C)/C=C/C=C/C=C/C=C/C=C/C=C/C=C/[C@H](O[C@@H]2O[C@H](C)[C@@H](O)[C@H](N)[C@@H]2O)C[C@@H]2O[C@](O)(C[C@@H](O)C[C@@H](O)[C@H](O)CC[C@@H](O)C[C@@H](O)CC(=O)O[C@H]1C)C[C@H](O)[C@H]2C(=O)O [amphotericin B, reference compound]","MIC, antibiotic control","[2]; C. albicans, footnote control",C. albicans: amphotericin B = 2 ug/mL
"O=C(N[C@H](CO)[C@H](O)c1ccc([N+](=O)[O-])cc1)C(Cl)Cl [chloramphenicol, reference compound]",MIC,S. aureus ATCC 29213; [11],8 µg/mL
CC[C@H]1OC(=O)[C@H](C)[C@@H](O[C@H]2C[C@@](C)(OC)[C@@H](O)[C@H](C)O2)[C@H](C)[C@@H](O[C@@H]2O[C@H](C)C[C@H](N(C)C)[C@H]2O)[C@](C)(O)C[C@@H](C)C(=O)[C@H](C)[C@@H](O)[C@]1(C)O [erythromycin],Glycosyltransferase activity on the substance as substrate,[10],no activity
"OC(Cn1cncn1)(Cn1cncn1)c1ccc(F)cc1F [fluconazole, reference compound]","MIC, antibiotic control","[3]; C. auris, footnote control",C. auris: fluconazole = 1 ug/mL
"Cc1onc(-c2ccccc2)c1C(=O)N[C@@H]1C(=O)N2[C@@H]1SC(C)(C)[C@@H]2C(=O)O [oxacillin, reference compound]","MIC, antibiotic control","[7]; S. aureus, footnote control",S. aureus: oxacillin = 0.25-0.5 ug/mL
same,MIC,S. aureus ATCC 29213; [11],2 µg/mL
CC[C@H]1OC(=O)C[C@@H](O)[C@H](C)[C@@H](O[C@@H]2O[C@H](C)[C@@H](O[C@H]3C[C@@](C)(O)[C@@H](O)[C@H](C)O3)[C@H](N(C)C)[C@H]2O)[C@@H](CC=O)C[C@@H](C)C(=O)/C=C/C(C)=C/[C@@H]1CO[C@@H]1O[C@H](C)[C@@H](O)[C@@H](OC)[C@H]1OC [tylosin],Glycosyltransferase activity on the substance as substrate,[10],no activity
"CN[C@H](CC(C)C)C(=O)N[C@H]1C(=O)N[C@@H](CC(N)=O)C(=O)N[C@H]2C(=O)N[C@H]3C(=O)N[C@H](C(=O)N[C@H](C(=O)O)c4cc(O)cc(O)c4-c4cc3ccc4O)[C@H](O)c3ccc(c(Cl)c3)Oc3cc2cc(c3O[C@@H]2O[C@H](CO)[C@@H](O)[C@H](O)[C@H]2O[C@H]2C[C@](C)(N)[C@H](O)[C@H](C)O2)Oc2ccc(cc2Cl)[C@H]1O [vancomycin, reference compound]","MIC, antibiotic control","[1]; MRSA, footnote control",MRSA: vancomycin = 0.5-1 ug/mL
same,"MIC, antibiotic control","[4]; E. faecalis, footnote control",E. faecalis: vancomycin = 2 ug/mL
